We go through eleven molecules from patent US6384070B2, “Indole derivatives useful as endothelin receptor antagonists” (Pfizer Inc., priority 1996, dated 2002).

Test system in the first data set: not given
Experiment: not given
Conditions: not given
A word on the melting point: it is the temperature, or range, at which the solid turns liquid. On to `COc1cc(C)ccc1S(=O)(=O)NC(=O)C(c1cc(OC)c2c(c1)OCO2)c1cn(C)c2cc(Br)ccc12` (centres unmarked) [Example 92, 6-Bromo-3-{1-(7-methoxy-1,3-benzodioxol-5-yl)-2-[(2-methoxy-4-methylphenyl)sulfonamido]-2-oxoethyl}-1-methyl-1H-indole], for which the melting point is 235 °C (dec.).
For `Cc1ccc(S(=O)(=O)NC(=O)C(c2cc3c(cc2Cl)OCO3)c2cn(C)c3cc(CO)ccc23)cc1` (centres unmarked) [Example 99, 3-{1-(6-Chloro-1,3-benzodioxol-5-yl)-2-[(4-methylphenyl)sulfonamido]-2-oxoethyl}-6-(hydroxymethyl)-1-methyl-1H-indole], the melting point is 207 to 209 °C.
On the same count and under the same terms, the result for `Cn1cc(C(C(=O)O)c2ccc3c(c2)OCO3)c2cc(Br)ccc21` (centres unmarked) [Example 68, 2-(1,3-Benzodioxol-5-yl)-2-(5-bromo-1-methyl-1H-3-indolyl)acetic acid] reads 191 to 193 °C; that for `COc1cc(C)ccc1S(=O)(=O)NC(=O)C(c1ccc2c(c1)OCO2)c1cn(C)c2ccc(Br)cc12` (centres unmarked) [Example 79, 3-{1-(1,3-Benzodioxol-5-yl)-2-[(2-methoxy-4-methylphenyl)sulfonamido]-2-oxoethyl}-5-bromo-1-methyl-1H-indole], 145 to 150 °C.
In the case of `COc1cc(C)ccc1S(=O)(=O)NC(=O)C(c1ccc2c(c1)OCO2)c1cn(C)c2cc(Br)ccc12` (centres unmarked) [Example 85, 3-{1-(1,3-benzodioxol-5-yl)-2-[(2-methoxy-4-methylphenyl)sulfonamido]-2-oxoethyl}-6-bromo-1-methyl-1H-indole], the melting point is 145 to 150 °C (dec.).

A further data set concerns neointimal formation.
Experiment: not given
The note with it: S. Douglas et al. Circ Res, 75, 1994; cited from earlier work.
In the case of `CCCOc1ccc2c(c1)[C@@H](c1ccc(OC)cc1OCC(=O)O)[C@H](C(=O)O)[C@H]2c1ccc2c(c1)OCO2` [SB-209670], the “reduction in neointimal formation relative to control animals” value is given as 50%.

The target in another data set is T1, cloned human ETA receptor (Homo sapiens, UniProt P25101).
T1 sequence (P25101 21-427): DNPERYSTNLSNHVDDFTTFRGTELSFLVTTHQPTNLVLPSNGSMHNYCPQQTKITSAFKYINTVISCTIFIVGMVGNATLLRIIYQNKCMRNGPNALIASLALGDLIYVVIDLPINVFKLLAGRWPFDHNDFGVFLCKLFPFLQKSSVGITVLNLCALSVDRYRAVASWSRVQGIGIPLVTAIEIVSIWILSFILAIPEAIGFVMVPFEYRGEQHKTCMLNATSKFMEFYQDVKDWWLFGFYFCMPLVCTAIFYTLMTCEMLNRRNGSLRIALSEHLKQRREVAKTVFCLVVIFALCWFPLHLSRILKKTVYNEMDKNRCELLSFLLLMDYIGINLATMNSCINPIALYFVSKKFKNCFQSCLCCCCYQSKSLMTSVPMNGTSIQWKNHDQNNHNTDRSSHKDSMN
As to the kind of experiment: Test A binding assay: competition with 125I-ET-1, binding to ETA receptors. To be noted: [125I]Tyr13 ET-1 displacement, 37° C., 2 hours. On the procedure:
Competition between test compounds and ^125I-ET-1 binding to human endothelin receptors is determined as follows.
25 ul of a 30 pM solution of [^125I]Tyr^13 ET-1 (specific activity 2,200 Ci/mM) is mixed with 25 μl samples of test compound (final concentrations in the range 0.1 nM-50.000 nM). 200 μl of a solution containing cloned human ETA receptor (0.75 pmoles receptor protein/ml). 50 mM Tris, 0.5 mM CaCl2, 0.1% human serum albumen. 0.1% bacitracin. 0.05% Tween 20, pH 7.4 is added. The solution is mixed at 37° C. for 2 hours. After the incubation, the unbound ligand is separated from receptor bound ligand by filtration with a Brandel cell harvester, followed by three washes of buffer. Filter papers are counted for radioactivity, and the IC50 (the concentration of test compound at which 50% of the radio-labelled compound is unbound) determined for the concentration range tested.
One may read the IC50 as the concentration that gives 50% inhibition. On to `COc1cc(C)ccc1S(=O)(=O)NC(=O)C(c1ccc2c(c1)OCO2)c1cn(C)c2cc(CO)ccc12` (centres unmarked) [Example 65, 3-{1-(1,3-Benzodioxol-5-yl)-2-[(2-methoxy-4-methylphenyl)sulfonamido]-2-oxoethyl}-6-(hydroxymethyl)-1-methyl-1H-indole], for which the IC50 is < 500 nM.
The same measure, in the same setting: for `COCCn1cc(C(C(=O)NS(=O)(=O)c2ccc(C)cc2OC)c2ccc3c(c2)OCO3)c2ccc(C(N)=O)cc21` (centres unmarked) [Example 109, 3-{1-(1,3-benzodioxol-5-yl)-2-[(4-methyl-2-methoxyphenyl)sulfonamido]-2-oxoethyl}-1-(2-methoxyethyl)-1H-6-indolecarboxamide] the value was < 500 nM; for `COc1cc(C)ccc1S(=O)(=O)NC(=O)C(c1ccc2c(c1)OCO2)c1cn(C)c2cc(C(C)=O)ccc12` (centres unmarked) [Example 101, 6-Acetyl-3-{1-(1,3-benzodioxol-5-yl)-2-[(2-methoxy-4-methylphenyl)sulfonamido]-2-oxoethyl}-1-methyl-1H-indole], < 500 nM.
Still for that read-out and setting: for `COc1cc(C)ccc1S(=O)(=O)NC(=O)C(c1ccc2c(c1)OCO2)c1cn(C)c2cc(F)ccc12` (centres unmarked) [Example 83] the value was < 500 nM; for `COc1cc(C)ccc1S(=O)(=O)NC(=O)C(c1ccc2c(c1)OCO2)c1cn(C)c2cc(C(=O)O)ccc12` (centres unmarked) [Example 17, 3-{1-(1,3-benzodioxol-5-yl)-2-[(2-methoxy-4-methylphenyl)sulfonamido]-2-oxoethyl}-1-methyl-1H-6-indolecarboxylic acid], < 500 nM.
